Measurements as given in publication PMC5908784, “Extracellular loops 2 and 3 of the calcitonin receptor selectively modify agonist binding and efficacy” (Biochemical Pharmacology, 2018).
Changes are numbered by the printed parent chain. Where a SMILES comes first, the peptide text is derived from it. Bridges are numbered along the chain shown (N, C = ends).

How the values were obtained:
Assay in all cases: cAMP accumulation
Assay type in all cases: cell-based
Details in all cases: mean ± S.E.M.; for Emax: cAMP maximal response, SEM; for EC50: cAMP, CV1-FlpIn cells, 30 min, IBMX
[1] = target: T1, hCTR D373A (Homo sapiens, UniProt P30988, D373A)
T1 construct: c-Myc (N); expressed in transfected cells
T1 sequence (P30988 25-474 D373A): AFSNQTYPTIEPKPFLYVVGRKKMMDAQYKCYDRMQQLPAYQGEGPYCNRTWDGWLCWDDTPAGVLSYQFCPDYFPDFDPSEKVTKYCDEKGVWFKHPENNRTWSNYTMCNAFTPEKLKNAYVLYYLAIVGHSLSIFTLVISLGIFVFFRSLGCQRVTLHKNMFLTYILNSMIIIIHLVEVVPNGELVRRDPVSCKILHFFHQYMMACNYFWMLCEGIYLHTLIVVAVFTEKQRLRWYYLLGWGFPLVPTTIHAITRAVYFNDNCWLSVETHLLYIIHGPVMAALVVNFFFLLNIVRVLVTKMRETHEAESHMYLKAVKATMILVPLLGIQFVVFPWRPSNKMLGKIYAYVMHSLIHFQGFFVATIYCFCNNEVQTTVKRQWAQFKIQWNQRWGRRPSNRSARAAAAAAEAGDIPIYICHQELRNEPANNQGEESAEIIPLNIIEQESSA
Procedure: (§1) Cells (2.5 × 10^4 cells/well) were seeded into 96-well plates and incubated overnight. Cells were stimulated with increasing concentrations of ligands for 30 min in the presence of IBMX. The liquid was discarded, changed to absolute ethanol and volatilized to dryness at room temperature. […] Data were normalized to the response of 100 μM forskolin.
(§2) Data were corrected for radioligand occupancy using the Cheng-Prusoff equation in Prism; as such data are reported as pKi. Emax and EC50 were estimated from concentration-response curves using with a 3-parameter logistic equation in Prism (v7). These values are a composite of functional affinity, efficacy and stimulus response coupling. […] Significance was accepted at P < 0.05.

[2] = target: T2, hCTR K366A (Homo sapiens, UniProt P30988, K366A)
T2 construct: c-Myc (N); expressed in transfected cells
T2 sequence (P30988 25-474 K366A): T1 sequence (P30988 25-474 D373A) with K342A, A349D
Procedure: as §1, §2

[3] = target: T3, hCTR V283A (Homo sapiens, UniProt P30988, V283A)
T3 construct: expressed in transfected cells
T3 sequence (P30988 25-474 V283A): T1 sequence (P30988 25-474 D373A) with V259A, A349D
Procedure: as §1, §2

[4] = target: T4, hCTR WT (Homo sapiens, UniProt P30988)
T4 construct: expressed in transfected cells
T4 sequence (P30988 25-474): T1 sequence (P30988 25-474 D373A) with A349D
Procedure: as §1, §2

[5] = target: T5, hCTR Y374A (Homo sapiens, UniProt P30988, Y374A)
T5 construct: c-Myc (N); expressed in transfected cells
T5 sequence (P30988 25-474 Y374A): T1 sequence (P30988 25-474 D373A) with A349D, Y350A
Procedure: as §1, §2

Row | SMILES | Emax [1] | Emax [2] | Emax [3] | Emax [4] | Emax [5] | EC50 [1] | EC50 [2] | EC50 [3] | EC50 [4] | EC50 [5]
1 | CC(C)C[C@H](NC(=O)[C@H](CCCCN)NC(=O)CNC(=O)[C@H](CC(C)C)NC(=O)[C@@H](NC(=O)[C@@H]1CSSC[C@H](N)C(=O)N[C@@H](CO)C(=O)N[C@@H](CC(N)=O)C(=O)N[C@@H](CC(C)C)C(=O)N[C@@H](CO)C(=O)N[C@@H]([C@@H](C)O)C(=O)N1)C(C)C)C(=O)N[C@@H](CO)C(=O)N[C@@H](CCC(N)=O)C(=O)N[C@@H](CCC(=O)O)C(=O)N[C@@H](CC(C)C)C(=O)N[C@@H](Cc1c[nH]cn1)C(=O)N[C@@H](CCCCN)C(=O)N[C@@H](CC(C)C)C(=O)N[C@@H](CCC(N)=O)C(=O)N[C@H](C(=O)N[C@@H](Cc1ccc(O)cc1)C(=O)N1CCC[C@H]1C(=O)N[C@@H](CCCNC(=N)N)C(=O)N[C@H](C(=O)N[C@@H](CC(N)=O)C(=O)N[C@H](C(=O)NCC(=O)N[C@@H](CO)C(=O)NCC(=O)N[C@H](C(=O)N1CCC[C@H]1C(N)=O)[C@@H](C)O)[C@@H](C)O)[C@@H](C)O)[C@@H](C)O [sCT] | 116 ± 8% | 81 ± 5% | 116 ± 12% | 100 ± 1% | 96 ± 5% |  |  |  |  | 
2 | CC(C)C[C@H](NC(=O)[C@H](CC(N)=O)NC(=O)[C@H](CC(N)=O)NC(=O)[C@H](CO)NC(=O)[C@H](CO)NC(=O)[C@H](CCCNC(=N)N)NC(=O)[C@@H](NC(=O)[C@H](CC(C)C)NC(=O)[C@H](Cc1ccccc1)NC(=O)[C@H](CC(N)=O)NC(=O)[C@H](C)NC(=O)[C@H](CC(C)C)NC(=O)[C@H](CCCNC(=N)N)NC(=O)[C@H](CCC(N)=O)NC(=O)[C@@H](NC(=O)[C@H](C)NC(=O)[C@@H]1CSSC[C@H](NC(=O)[C@@H](N)CCCCN)C(=O)N[C@@H](CC(N)=O)C(=O)N[C@@H]([C@@H](C)O)C(=O)N[C@@H](C)C(=O)N[C@@H]([C@@H](C)O)C(=O)N1)[C@@H](C)O)C(C)C)C(=O)NCC(=O)N1CCC[C@H]1C(=O)N[C@H](C(=O)N[C@@H](CC(C)C)C(=O)N1CCC[C@H]1C(=O)N1CCC[C@H]1C(=O)N[C@H](C(=O)N[C@@H](CC(N)=O)C(=O)N[C@H](C(=O)NCC(=O)N[C@@H](CO)C(=O)N[C@@H](CC(N)=O)C(=O)N[C@H](C(=O)N[C@@H](Cc1ccc(O)cc1)C(N)=O)[C@@H](C)O)C(C)C)[C@@H](C)O)C(C)C [rAmy] | 64 ± 16% | 71 ± 7% | 77 ± 10% | 100 ± 4% | 92 ± 9% |  |  |  |  | 
3 | CC[C@H](C)[C@H](NC(=O)[C@H](C)NC(=O)[C@@H](NC(=O)[C@H](CCC(N)=O)NC(=O)[C@@H]1CCCN1C(=O)[C@H](Cc1ccccc1)NC(=O)[C@@H](NC(=O)[C@H](Cc1c[nH]cn1)NC(=O)[C@H](Cc1ccccc1)NC(=O)[C@H](CCCCN)NC(=O)[C@H](CC(N)=O)NC(=O)[C@H](Cc1ccccc1)NC(=O)[C@H](CC(=O)O)NC(=O)[C@H](CCC(N)=O)NC(=O)[C@@H](NC(=O)[C@H](Cc1ccc(O)cc1)NC(=O)[C@@H](NC(=O)CNC(=O)[C@H](CC(C)C)NC(=O)[C@H](CCSC)NC(=O)[C@@H]1CSSC[C@H](N)C(=O)NCC(=O)N[C@@H](CC(N)=O)C(=O)N[C@@H](CC(C)C)C(=O)N[C@@H](CO)C(=O)N[C@@H]([C@@H](C)O)C(=O)N1)[C@@H](C)O)[C@@H](C)O)[C@@H](C)O)[C@@H](C)O)C(=O)NCC(=O)N[C@H](C(=O)NCC(=O)N[C@@H](C)C(=O)N1CCC[C@H]1C(N)=O)C(C)C [hCT] | 142 ± 8% | 74 ± 3% | 90 ± 7% | 100 ± 2% | 83.2 ± 5% |  |  |  |  | 
4 | CC(C)C[C@H](NC(=O)CNC(=O)[C@H](C)NC(=O)[C@H](CC(C)C)NC(=O)[C@H](CCCNC(=N)N)NC(=O)[C@H](Cc1cnc[nH]1)NC(=O)[C@@H](NC(=O)[C@@H](NC(=O)[C@@H]1CSSC[C@H](NC(=O)[C@H](C)N)C(=O)N[C@@H](CC(=O)O)C(=O)N[C@@H]([C@@H](C)O)C(=O)N[C@@H](C)C(=O)N[C@@H]([C@@H](C)O)C(=O)N1)C(C)C)[C@@H](C)O)C(=O)N[C@@H](CC(C)C)C(=O)N[C@@H](CO)C(=O)N[C@@H](CCCNC(=N)N)C(=O)N[C@@H](CO)C(=O)NCC(=O)NCC(=O)N[C@H](C(=O)N[C@H](C(=O)N[C@@H](CCCCN)C(=O)N[C@@H](CC(N)=O)C(=O)N[C@@H](CC(N)=O)C(=O)N[C@@H](Cc1ccccc1)C(=O)N[C@H](C(=O)N1CCC[C@H]1C(=O)N[C@H](C(=O)N[C@@H](CC(N)=O)C(=O)N[C@H](C(=O)NCC(=O)N[C@@H](CO)C(=O)N[C@@H](CCCCN)C(=O)N[C@@H](C)C(=O)N[C@@H](Cc1ccccc1)C(N)=O)C(C)C)[C@@H](C)O)C(C)C)C(C)C)C(C)C [hαCGRP] | 34 ± 5% | 73 ± 13% | 130 ± 19% | 100 ± 7% | 82 ± 12% | 11.2 nM | 5.37 nM | 12.9 nM | 11 nM | 25.1 nM
5 | CSCC[C@H](NC(=O)CNC(=O)[C@H](CO)NC(=O)[C@H](Cc1ccccc1)NC(=O)[C@H](CCCNC(=N)N)NC(=O)[C@H](Cc1c[nH]cn1)NC(=O)[C@H](Cc1ccccc1)NC(=O)[C@H](CC(N)=O)NC(=O)[C@H](CC(N)=O)NC(=O)[C@H](CC(C)C)NC(=O)[C@H](CC(N)=O)NC(=O)[C@H](CCCNC(=N)N)NC(=O)[C@H](Cc1c[nH]c2ccccc12)NC(=O)[C@H](Cc1ccc(O)cc1)NC(=O)[C@H](C)NC(=O)[C@H](CO)NC(=O)[C@H](CC(C)C)NC(=O)[C@@H](NC(=O)[C@@H]1CSSC[C@H](N)C(=O)N[C@@H](CO)C(=O)N[C@@H](CC(N)=O)C(=O)N[C@@H](CC(C)C)C(=O)N[C@@H](CO)C(=O)N[C@@H]([C@@H](C)O)C(=O)N1)C(C)C)C(=O)NCC(=O)N[C@@H](Cc1ccccc1)C(=O)NCC(=O)N1CCC[C@H]1C(=O)N[C@@H](CCC(=O)O)C(=O)N[C@H](C(=O)N1CCC[C@H]1C(N)=O)[C@@H](C)O [pCT] (H-CSNLSTCVLSAYWRNLNNFHRFSGMGFGPETP-NH2; disulfide 1-7) | 158 ± 9% | 80 ± 8% | 107 ± 9% | 100 ± 2% | 90 ± 9% | 0.389 nM | 0.02 nM | 0.0316 nM | 0.0398 nM | 0.02 nM
